Data taken from patent US20240417407A1, “FUROINDAZOLE DERIVATIVES AS GPR84 ANTAGONISTS” (Bayer Aktiengesellschaft, priority 2021, published 2024).

These molecules were tested against T1, human GPR84 receptor (Homo sapiens, UniProt Q9NQS5) (assay: cAMP HTRF assay for identification of cellular GPR84 antagonists). Settings: CHO-K1 cells stably expressing human GPR84; Forskolin plus agonist 6-OAU; cAMP HTRF readout; average or median values.
T1 construct: frozen aliquots prepared by acCELLerate; host or cells: CHO-K1
Type: cell-based
Source text: cAMP HTRF® Assay for Identification of Cellular GPR84 Antagonists
By using a Homogenous Time-Resolved Fluorescence (HTRF®) based assay (#62AM5PEJ, Cisbio, Condolet, France) the inhibition of the Gi-coupled GPR84 receptor can be detected. CHO-K1 cells stably expressing human GPR84 receptor (purchased from DiscoveRx, now Eurofins) were used and treated with Forskolin (F6886, Sigma, Germany) to stimulate membrane adenylyl cyclases and thereby unspecific cAMP formation. Activation of the Gi-coupled GPR84 by a natural or small molecule agonist (e.g. 6-n-octyl aminouracile, inhouse) results in inhibition of cellular cAMP formation which can be released again by antagonists to this receptor. Detection and quantification of cellular cAMP levels in this HTRF assay is achieved by interaction between a fluorescent cAMP tracer (cAMP-d2) and an Eu-cryptate labelled anti-cAMP antibody. Following excitation at 337 nm this pairing allows for the generation of a fluorescence resonance energy transfer (FRET) between the partners and results in FRET induced emissions at 665 nm and 620 nm, the latter representing background signal by Eu-cryptate labelled anti-cAMP antibody. Maximal signal is obtained in the absence of any cellular cAMP (no competition for the binding of the tracer to the antibody). Given the combination of the Gi coupling properties of GPR84 and the competitive nature of the detection system agonist treatment should result in an increase in the HTRF signal due to lowered cAMP levels. Any signal decrease in the presence of Forskolin, agonist and compound is indicative of antagonist mediated abrogation of GPR84 signalling.
For the assay, frozen aliquots of CHO-K1 cells expressing hGPR84 (prepared by acCELLerate, Hamburg, Germany) were thawed and a cell suspension (1.67E+06 cells/mL) in assay media (Ham's F12 Nutrient Mix, Thermo Fisher Scientific, Waltham, USA; 5% fetal calf serum, Biomol, Hamburg, Germany) containing cAMP-d2 (dilution 1:20, supplied with the kit #62AM5PEJ, Cisbio, Condolet, France) was prepared. After recovery of cells for 20 minutes at 37° C., 3 μL/well cell suspension including cAMP-d2 were added to a pre-dispensed assay plate (Greiner Bio-One, Kremsmuenster, Austria) containing 50 nl/well test compound in 100% DMSO or 100% DMSO as control. This was followed by a 30 minutes incubation step at room temperature. […] The reaction was stopped by addition of 3 μL/well lysis buffer containing cAMP Eu-Cryptate antibody (dilution 1:20) (both supplied with the kit #62AM5PEJ, Cisbio, Condolet, France). To enable complete lysis, plates were incubated for 60 minutes at room temperature before measurement in an HTRF reader, e.g. a PHERAstar (BMG Labtech, Ortenberg, Germany).
From the fluorescence emissions at 665 nm (FRET) and at 620 nm (background signal of Eu-cryptate) the ratio (emission at 665 nm divided by emission at 620 nm×10000) was calculated and the data were normalized (reaction without test compound, only 100% DMSO=0% inhibition; all other assay components except agonist=100% inhibition). For dose response testing on the same microtiter plate, compounds were tested at 11 different concentrations in the range of 20 μM to 0.07 nM (20 μM, 5.7 μM, 1.6 μM, 0.47 μM, 0.13 μM, 38 nM, 11 nM, 3.1 nM, 0.89 nM, 0.25 and 0.07 nM; dilution series prepared before the assay at the level of the 100-fold conc. stock solutions by serial 1:3.5 dilutions in 100% DMSO) in duplicate values for each concentration. IC50 values were calculated by 4-parameter fitting using a commercial software package (Genedata Screener, Basel, Switzerland).
Examples were tested in selected biological assays one or more times. […]

T1 sequence (Q9NQS5 whole entry): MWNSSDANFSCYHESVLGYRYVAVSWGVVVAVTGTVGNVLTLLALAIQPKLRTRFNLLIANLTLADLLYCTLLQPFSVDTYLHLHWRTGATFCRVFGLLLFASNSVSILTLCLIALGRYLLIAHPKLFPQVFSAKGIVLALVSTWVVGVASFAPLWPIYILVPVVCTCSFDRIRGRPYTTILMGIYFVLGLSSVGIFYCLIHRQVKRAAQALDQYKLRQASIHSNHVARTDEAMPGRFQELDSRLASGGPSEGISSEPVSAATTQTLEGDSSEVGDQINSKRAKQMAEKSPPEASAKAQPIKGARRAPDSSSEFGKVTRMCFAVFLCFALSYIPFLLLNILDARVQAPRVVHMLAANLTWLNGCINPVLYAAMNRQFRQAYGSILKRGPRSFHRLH

SMILES | IC50 [nM]
CC1(C)COC(CNC(=O)c2oc3ccc4cn(C[C@H]5COCCO5)nc4c3c2C(F)(F)F)C1 (mixture of isomers) [Example 5] | 9
O=C(NCC1CC(F)(F)CO1)c1oc2ccc3cn(C[C@H]4COCCO4)nc3c2c1C(F)(F)F (mixture of isomers) [Example 6] | 11
O=C(NC[C@@H]1COCCO1)c1oc2ccc3cn(C[C@H]4COCCO4)nc3c2c1C(F)(F)F [Example 1, N-{[(2R)-1,4-dioxan-2-yl]methyl}-2-{[(2S)-1,4-dioxan-2-yl]methyl}-8-(trifluoromethyl)-2H-furo[2,3-g]indazole-7-carboxamide] | 16
O=C(NC[C@@H]1CCCO1)c1oc2ccc3cn(C[C@H]4COCCO4)nc3c2c1C(F)(F)F [Example 2] | 7
Cc1ccc(Cn2cc3ccc4oc(C(=O)NC[C@@H]5COCCO5)c(C(F)(F)F)c4c3n2)cn1 [Example 3, N-{[(2R)-1,4-dioxan-2-yl]methyl}-2-[(6-methylpyridin-3-yl)methyl]-8-(trifluoromethyl)-2H-furo[2,3-g]indazole-7-carboxamide] | 7
CS(=O)(=O)CCNC(=O)c1oc2ccc3cn(C[C@H]4COCCO4)nc3c2c1C(F)(F)F [Example 9] | 3490
O=C(NCc1cocn1)c1oc2ccc3cn(C[C@H]4COCCO4)nc3c2c1C(F)(F)F [Example 10] | 100
Cn1cnc(CNC(=O)c2oc3ccc4cn(C[C@H]5COCCO5)nc4c3c2C(F)(F)F)c1 [Example 11] | 75
O=C(NCc1nccs1)c1oc2ccc3cn(C[C@H]4COCCO4)nc3c2c1C(F)(F)F [Example 12] | 18
O=C(NCc1cnccn1)c1oc2ccc3cn(C[C@H]4COCCO4)nc3c2c1C(F)(F)F [Example 15] | 49
Cc1ccnc(CNC(=O)c2oc3ccc4cn(C[C@H]5COCCO5)nc4c3c2C(F)(F)F)c1 [Example 19, 2-{[(2S)-1,4-dioxan-2-yl]methyl}-N-[(4-methylpyridin-2-yl)methyl]-8-(trifluoromethyl)-2H-furo[2,3-g]indazole-7-carboxamide] | 53
Cc1cnc(CNC(=O)c2oc3ccc4cn(C[C@H]5COCCO5)nc4c3c2C(F)(F)F)cn1 [Example 20, 2-{[(2S)-1,4-dioxan-2-yl]methyl}-N-[(5-methylpyrazin-2-yl)methyl]-8-(trifluoromethyl)-2H-furo[2,3-g]indazole-7-carboxamide] | 18
O=C(NCCc1cccnc1)c1oc2ccc3cn(C[C@H]4COCCO4)nc3c2c1C(F)(F)F [Example 28, 2-{[(2S)-1,4-dioxan-2-yl]methyl}-N-[2-(pyridin-3-yl)ethyl]-8-(trifluoromethyl)-2H-furo[2,3-g]indazole-7-carboxamide] | 3580
Cc1cc2oc(C(=O)NC[C@@H]3CCCO3)c(C(F)(F)F)c2c2nn(Cc3ccccn3)cc12 [Example 29] | 16
Cc1cc2oc(C(=O)NC[C@@H]3CCCO3)c(C(F)(F)F)c2c2nn(Cc3ccncc3)cc12 [Example 31] | 13
Cc1ccc(Cn2cc3c(C)cc4oc(C(=O)NC[C@@H]5COCCO5)c(C(F)(F)F)c4c3n2)nc1 [Example 36, N-{[(2R)-1,4-dioxan-2-yl]methyl}-4-methyl-2-[(5-methylpyridin-2-yl)methyl]-8-(trifluoromethyl)-2H-furo[2,3-g]indazole-7-carboxamide] | 5
Cc1ccc(Cn2cc3c(C)cc4oc(C(=O)NCc5ncco5)c(C(F)(F)F)c4c3n2)nc1 [Example 37, 4-methyl-2-[(5-methylpyridin-2-yl)methyl]-N-[(1,3-oxazol-2-yl)methyl]-8-(trifluoromethyl)-2H-furo[2,3-g]indazole-7-carboxamide] | 18

Continued by falling IC50, values first:

IC50 [nM] | SMILES
14000 | Cc1cn(CCNC(=O)c2oc3ccc4cn(C[C@H]5COCCO5)nc4c3c2C(F)(F)F)nn1 [Example 26]
13000 | O=C(NCCn1ccnc1)c1oc2ccc3cn(C[C@H]4COCCO4)nc3c2c1C(F)(F)F [Example 25]
1040 | O=C(NCCC1CC1)c1oc2ccc3cn(C[C@H]4COCCO4)nc3c2c1C(F)(F)F [Example 8]
630 | O=C(NCCc1ccccn1)c1oc2ccc3cn(C[C@H]4COCCO4)nc3c2c1C(F)(F)F [Example 27, 2-{[(2S)-1,4-dioxan-2-yl]methyl}-N-[2-(pyridin-2-yl)ethyl]-8-(trifluoromethyl)-2H-furo[2,3-g]indazole-7-carboxamide]
490 | O=C(NCc1cncs1)c1oc2ccc3cn(C[C@H]4COCCO4)nc3c2c1C(F)(F)F [Example 13]
460 | O=C(NCc1cccnn1)c1oc2ccc3cn(C[C@H]4COCCO4)nc3c2c1C(F)(F)F [Example 17]
400 | COc1cccc(CNC(=O)c2oc3ccc4cn(C[C@H]5COCCO5)nc4c3c2C(F)(F)F)n1 [Example 24]
350 | Cc1ccc(CNC(=O)c2oc3ccc4cn(C[C@H]5COCCO5)nc4c3c2C(F)(F)F)nn1 [Example 21]
250 | N#Cc1ccnc(CNC(=O)c2oc3ccc4cn(C[C@H]5COCCO5)nc4c3c2C(F)(F)F)c1 [Example 23]
150 | Cc1cc2oc(C(=O)NCc3ccn(C)n3)c(C(F)(F)F)c2c2nn(Cc3ccccn3)cc12 [Example 34]
120 | O=C(NCc1ccncn1)c1oc2ccc3cn(C[C@H]4COCCO4)nc3c2c1C(F)(F)F [Example 16]
100 | Cc1cc2oc(C(=O)NCc3ncco3)c(C(F)(F)F)c2c2nn(Cc3ccccn3)cc12 [Example 33]
48 | O=C(NCc1ncccn1)c1oc2ccc3cn(C[C@H]4COCCO4)nc3c2c1C(F)(F)F [Example 14]
32 | Cc1cc2oc(C(=O)NC[C@@H]3COCCO3)c(C(F)(F)F)c2c2nn(C[C@H]3COCCO3)cc12 [Example 39, N-{[(2R)-1,4-dioxan-2-yl]methyl}-2-{[(2S)-1,4-dioxan-2-yl]methyl}-4-methyl-8-(trifluoromethyl)-2H-furo[2,3-g]indazole-7-carboxamide]
26 | Cc1cc2oc(C(=O)NC[C@@H]3COCCO3)c(C(F)(F)F)c2c2nn(Cc3ccccn3)cc12 [Example 30]
21 | Cc1cc2oc(C(=O)NC[C@@H]3CCCO3)c(C(F)(F)F)c2c2nn(C[C@H]3COCCO3)cc12 [Example 38]
13 | CC1CCC(CNC(=O)c2oc3ccc4cn(C[C@H]5COCCO5)nc4c3c2C(F)(F)F)O1 (mixture of isomers) [Example 7, 2-{[(2S)-1,4-dioxan-2-yl]methyl}-N-{[(2RS,5RS)-5-methyltetrahydrofuran-2-yl]methyl}-8-(trifluoromethyl)-2H-furo[2,3-g]indazole-7-carboxamide]
13 | N#Cc1ccc(CNC(=O)c2oc3ccc4cn(C[C@H]5COCCO5)nc4c3c2C(F)(F)F)nc1 [Example 22]
9 | Cc1ccc(Cn2cc3ccc4oc(C(=O)NC[C@@H]5CCCO5)c(C(F)(F)F)c4c3n2)cn1 [Example 4]
7 | Cc1ccc(CNC(=O)c2oc3ccc4cn(C[C@H]5COCCO5)nc4c3c2C(F)(F)F)nc1 [Example 18, 2-{[(2S)-1,4-dioxan-2-yl]methyl}-N-[(5-methylpyridin-2-yl)methyl]-8-(trifluoromethyl)-2H-furo[2,3-g]indazole-7-carboxamide]
4 | Cc1ccc(Cn2cc3c(C)cc4oc(C(=O)NC[C@@H]5CCCO5)c(C(F)(F)F)c4c3n2)nc1 [Example 35]
